Measurements taken from patent publication US7060277B2 (priority 1996, dated 2006).
“Also recorded” adds a separate entry of the source. Square brackets hold non-standard residues; d marks the D form. Ends that are not written are not given here. Peptide text beside a SMILES is read from it.

What was measured:
[1] = system: SEB-mediated induction of IL-2, IFN-γ and/or TNF-β gene expression in PBMC; type: cell-based, human
[2] = mouse, in vivo
[3] = pig
SEB-induced lethal shock = system: SEB-induced lethal shock; design: species or system BALB/c mice; details: mouse, in vivo
[4] = system: expression of IL-2 and IFN-γ genes in PBMC; type: cell-based, human
[5] = system: induction of IL-2 / IFN-γ mRNA by TSST-1 in PBMC; type: cell-based, human

## K K K V T A Q E L D (KKKVTAQELD) [pSEB(152–161)]
[1]
  antagonist activity, SEB-mediated IL-2 mRNA induction: pronounced antagonist activity

## C Y N K K K A T V Q E L D C [Cys-p12(150–161)]
[1]
  SEB antagonist activity, IL-2 and IFN-γ mRNA at 8 hrs: significant SEB antagonist activity, even upon tenfold dilution
  SEB antagonist activity, overall comparison: more powerful as antagonist than p12(150–161)

## CC(C)C[C@H](NC(=O)[C@H](CCC(=O)O)NC(=O)[C@H](CCC(N)=O)NC(=O)[C@@H](NC(=O)[C@@H](NC(=O)[C@H](C)NC(=O)[C@H](CCCCN)NC(=O)[C@H](CCCCN)NC(=O)[C@H](CCCCN)NC(=O)[C@H](CC(N)=O)NC(=O)[C@H](Cc1ccc(O)cc1)NC(=O)[C@H](CCC(N)=O)NC(=O)[C@@H](NC(=O)[C@@H](C)N)C(C)C)[C@@H](C)O)C(C)C)C(=O)N[C@@H](CC(=O)O)C(=O)N[C@H](C)C(=O)O [p14A, daV Q Y N K K K A T V Q E L Dda] (H-[dA]VQYNKKKATVQELD[dA]-OH)
[2]
  viability and side effects of mice exposed to peptide alone: stayed fully viable and showed no detectable side effects
[3]
  toxin agonist activity in vivo: without any detectable toxin agonist activity in vivo
[3]; in vivo
  symptoms of incapacitation in pigs that received peptide alone: failed to develop any symptoms of incapacitation

## lpV Q Y N K K K A T V Q E L D [p14A-LP]
SEB-induced lethal shock
  immunized mice that survived lethal SEB challenge: Ten out of 11
  immunized survivors that survived rechallenge with a double dose of SEB: 7 out of the 10

## K K K A T V Q E L D (KKKATVQELD) [p10(152–161)]
[1]
  antagonist activity, SEB-mediated IL-2 mRNA induction: pronounced antagonist activity; also recorded: lower, yet still significant, antagonist activity
  inhibition of IL-2 gene induction by SEB: up to 8 fold

## CC(C)C[C@H](NC(=O)[C@H](CCC(=O)O)NC(=O)[C@H](CCC(N)=O)NC(=O)[C@@H](NC(=O)[C@@H](NC(=O)[C@H](C)NC(=O)[C@H](CCCCN)NC(=O)[C@H](CCCCN)NC(=O)[C@H](CCCCN)NC(=O)[C@H](CC(N)=O)NC(=O)[C@H](Cc1ccc(O)cc1)NC(=O)[C@@H](C)N)[C@@H](C)O)C(C)C)C(=O)N[C@@H](CC(=O)O)C(=O)N[C@H](C)C(=O)O [p12A, daY N K K K A T V Q E L Dda] (H-[dA]YNKKKATVQELD[dA]-OH)
[2]
  side effects in peptide-treated, SEB-challenged mice: No side effects
  viability and side effects of mice exposed to peptide alone: stayed fully viable and showed no detectable side effects

## YNKKKATVQELDYNKKKATVQELIYNKKKATVQELD (YNKKKATVQELDYNKKKATVQELIYNKKKATVQELD) [Trimer]
[1]
  inhibition of induction of IL-2 and IFN-γ mRNA by SEB: strongly inhibitory

## YNKKKATVQELD [p12(150–161), Y N K K K A T V Q E L D]
PBMC
  viability of PBMC cultured with peptide: undiminished viability

## IDQFLYFDLIYSIKDTKLGNY (IDQFLYFDLIYSIKDTKLGNY) [pSEB(41–61)]
[1]
  block of induction of IL-2 and IFN-γ mRNA by SEB: failed to block induction of IL-2 and IFN-γ mRNA by SEB
[4]
  SEB agonist activity, induction of mRNA for IL-2 or IFN-γ by RNase protection: failed to show SEB agonist activity

## YNKKKATVQELDYNKKKATVQELI (YNKKKATVQELDYNKKKATVQELD; listed as Staphylococcus aureus) [Dimer]
[1]
  SEB antagonist activity, overall comparison: more powerful as antagonist than p12(150–161)
  inhibition of IFN-γ mRNA induction by SEB, peptide diluted 100-fold: detectable inhibition
  inhibition of SEB-induced IL-2 and IFN-γ gene expression: effective as antagonist
  inhibition of induction of IL-2 and IFN-γ mRNA by SEB: strongly inhibitory
  inhibition of induction of IL-2 mRNA by SEB: inhibited
[5]
  inhibition of induction of IL-2 mRNA by TSST-1: inhibited

## TNKKKVTAQELD [pSEB(150–161), T N K K K V T A Q E L D]
PBMC
  viability of PBMC cultured with peptide: undiminished viability
